From patent US20060069132A1, “Azolecarboxamide herbicides” (priority 2004, published 2006)

Columns and labels:
giant foxtail [1] = test: Test A pre-/postemergence herbicide test; type: in vivo, Setaria faberi
In short: (§1)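 Sandy loam soil given preemergence directed spray; plants at 2 to 10 cm, one- to two-leaf stage, sprayed to runoff postemergence, compounds in non-phytotoxic solvent with surfactant. Injury rated visually versus untreated controls after about ten greenhouse days, 0 (no effect) to 100 (complete control); dash means not tested.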

ducksalad = test: Test B flooded paddy test; type: in vivo, Heteranthera limosa; settings: 1000 g ai/ha, scale 0 to 100 (0 no effect, 100 complete control)
In short: (§2)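 Read-out: visual comparison with controls, scored 0 to 100, where 100 means complete control and 0 no effect. Formulated chemicals were applied postemergence to plants 2–18 cm tall (1- to 4-leaf), or to flooded-paddy plants at the 2-leaf stage, then held 13 to 15 days under glass.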

blackgrass = test: Test B postemergence herbicide test; type: in vivo, Alopecurus myosuroides; settings: postemergence
In short: as §2

rice [2] = test: Test B flooded paddy test; type: in vivo, Oryza sativa; settings: 1000 g ai/ha, scale 0 to 100 (0 no effect, 100 complete control)
In short: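 Greenhouse test; postemergence application to plants at 1–4 leaves (2–18 cm); paddy species at 2 leaves; evaluated visually vs controls at 13–15 days; scale 0–100 (100 = complete control).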

[3] = test system: small flower umbrella sedge; test: Test B flooded paddy test; type: in vivo, Cyperus difformis; settings: 1000 g ai/ha, scale 0 to 100 (0 no effect, 100 complete control)
In short: as §2

wild oat = test: Test B postemergence herbicide test; type: in vivo, Avena fatua; settings: postemergence
In short: (§3)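 Scale 0–100: zero equals no visible effect, 100 complete control, judged by eye relative to controls. Timing: 13 to 15 days in greenhouse post-treatment. Growth stage at spraying: two leaves (paddy) or one to four leaves, 2–18 cm (postemergence).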

rice [4] = test: Test B pre-/postemergence herbicide test; type: in vivo, Oryza sativa; settings: preemergence
In short: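 Species tested were Echinochloa crus-galli, Ipomoea coccinea, Xanthium strumarium and Oryza sativa, treated both before emergence and at the 1- to 4-leaf stage; rice and barnyardgrass were also tested under flooding at 2 leaves. Greenhouse incubation lasted 13–15 days before visual 0–100 scoring.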

Surinam grass = test: Test B pre-/postemergence herbicide test; type: in vivo, Urochloa decumbens; settings: for Surinam Grass plant response rating: postemergence
In short: (§4)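 Greenhouse pot assay with simultaneous preemergence (treated seed) and postemergence (2–18 cm seedlings) applications of surfactant-containing, non-phytotoxic solvent formulations. Response scored visually 13–15 days later on a 0–100 scale, 100 meaning complete control.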

redroot pigweed = test: Test A pre-/postemergence herbicide test; type: in vivo, Amaranthus retroflexus
In short: as §1

large crabgrass [5] = test: Test A pre-/postemergence herbicide test; type: in vivo, Digitaria sanguinalis
In short: as §1

large crabgrass [6] = test: Test B pre-/postemergence herbicide test; type: in vivo, Digitaria sanguinalis; settings: for Crabgrass, Large plant response rating: postemergence
In short: as §4

velvetleaf [7] = test: Test B pre-/postemergence herbicide test; type: in vivo, Abutilon theophrasti; settings: for Velvetleaf plant response rating: postemergence
In short: as §4

barnyardgrass [8] = test: Test B pre-/postemergence herbicide test; type: in vivo, Echinochloa crus-galli; settings: for Barnyardgrass plant response rating: postemergence
In short: (§5)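 Pre: seeds sown, then sprayed. Post: 1–4-leaf plants (2–18 cm) sprayed at the same time. Paddy: flooded, treated at 2-leaf stage. Formulation: non-phytotoxic solvent with surfactant. Greenhouse 13–15 days; visual 0–100 score relative to controls.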

pigweed = test: Test B pre-/postemergence herbicide test; type: in vivo, Amaranthus retroflexus; settings: for Pigweed plant response rating: postemergence
In short: as §4

cocklebur = test: Test B pre-/postemergence herbicide test; type: in vivo, Xanthium strumarium; settings: for Cocklebur plant response rating: postemergence
In short: as §5

velvetleaf [9] = test: Test A pre-/postemergence herbicide test; type: in vivo, Abutilon theophrasti
In short: as §1

giant foxtail [10] = test: Test B pre-/postemergence herbicide test; type: in vivo, Setaria faberi; settings: for Foxtail, Giant plant response rating: postemergence
In short: as §4

morningglory [11] = test: Test A pre-/postemergence herbicide test; type: in vivo, Ipomoea spp.
In short: as §1

barnyardgrass [12] = test: Test B flooded paddy test; type: in vivo, Echinochloa crus-galli; settings: 1000 g ai/ha, scale 0 to 100 (0 no effect, 100 complete control)
In short: as §2

lambsquarters = test: Test B pre-/postemergence herbicide test; type: in vivo, Chenopodium album; settings: for Lambsquarters plant response rating: postemergence
In short: as §4

barnyardgrass [13] = test: Test A pre-/postemergence herbicide test; type: in vivo, Echinochloa crus-galli
In short: as §1

morningglory [14] = test: Test B pre-/postemergence herbicide test; type: in vivo, Ipomoea coccinea; settings: for Morningglory plant response rating: postemergence
In short: as §5

wheat = test: Test B postemergence herbicide test; type: in vivo, Triticum aestivum; set-up: key to Wheat plant response rating: 0 = no effect, 100 = complete control; settings: postemergence
In short: as §3

corn = test: Test B pre-/postemergence herbicide test; type: in vivo, Zea mays; settings: for Corn plant response rating: postemergence
In short: as §4

[15] = Postemergence, 500 g ai/ha, 0 to 100 scale, 0 no effect, 100 complete control
[16] = Postemergence, 2000 g ai/ha, 0 to 100 scale, 0 no effect, 100 complete control
[17] = Preemergence, 2000 g ai/ha, visual rating, 0 to 100 scale (0 no effect, 100 complete control)
[18] = preemergence, 500 g ai/ha, visual injury, 0 to 100 scale (0 no effect, 100 complete control)
[19] = 125 g ai/ha, visual rating, scale 0 (no effect) to 100 (complete control)
[20] = 500 g ai/ha, scale 0 to 100, 0 is no effect, 100 is complete control
[21] = 125 g ai/ha, 0 is no effect, 100 is complete control, preemergence
[22] = 500 g ai/ha, visual rating, 0 = no effect, 100 = complete control, preemergence

C#CCNC(=O)c1cccc(NC(=O)c2cc(C(C)(C)C)nn2C)n1 [Compound 316]
Foxtail, Giant plant response rating (giant foxtail [1]; [15]): 20
Plant response rating, Foxtail, Giant (giant foxtail [1]; [16]): 30
Foxtail, Giant plant response rating (giant foxtail [1]; [17]): 0
Foxtail, Giant plant response rating (giant foxtail [1]; [18]): 0
Ducksalad plant response rating (ducksalad): 0
Blackgrass plant response rating (blackgrass; [19]): 0
Blackgrass plant response rating (blackgrass; [20]): 0
Rice plant response rating (rice [2]): 0
Sedge, Umbrella plant response rating [3]: 0
Oat, Wild plant response rating (wild oat; [19]): 0
Oat, Wild plant response rating (wild oat; [20]): 20
Plant response rating (0 to 100 scale), Rice (rice [4]; 125 g ai/ha, 0 is no effect, 100 is complete control): 0
Plant response rating, Rice (rice [4]; 500 g ai/ha, visual rating, 0 = no effect, 100 = complete control): 0
Plant response rating (0 to 100 scale), Surinam Grass (Surinam grass; [21]): 0
Surinam Grass plant response rating (Surinam grass; [19]): 10
Plant response rating, Surinam Grass (Surinam grass; [22]): 0
Surinam Grass plant response rating (Surinam grass; [20]): 10
Pigweed plant response rating (redroot pigweed; [15]): 25
Plant response rating, Pigweed (redroot pigweed; [16]): 80
Pigweed plant response rating (redroot pigweed; [17]): 65
Pigweed plant response rating (redroot pigweed; [18]): 0
Crabgrass, Large plant response rating (large crabgrass [5]; [15]): 25
Plant response rating, Crabgrass, Large (large crabgrass [5]; [16]): 45
Crabgrass, Large plant response rating (large crabgrass [5]; [17]): 35
Crabgrass, Large plant response rating (large crabgrass [5]; [18]): 10
Plant response rating (0 to 100 scale), Crabgrass, Large (large crabgrass [6]; [21]): 0
Crabgrass, Large plant response rating (large crabgrass [6]; [19]): 10
Plant response rating, Crabgrass, Large (large crabgrass [6]; [22]): 20
Crabgrass, Large plant response rating (large crabgrass [6]; [20]): 10
Plant response rating (0 to 100 scale), Velvetleaf (velvetleaf [7]; [21]): 0
Velvetleaf plant response rating (velvetleaf [7]; [19]): 0
Plant response rating, Velvetleaf (velvetleaf [7]; [22]): 20
Velvetleaf plant response rating (velvetleaf [7]; [20]): 40
Plant response rating (0 to 100 scale), Barnyardgrass (barnyardgrass [8]; [21]): 0
Barnyardgrass plant response rating (barnyardgrass [8]; [19]): 0
Plant response rating, Barnyardgrass (barnyardgrass [8]; [22]): 0
Barnyardgrass plant response rating (barnyardgrass [8]; [20]): 40
Plant response rating (0 to 100 scale), Pigweed (pigweed; [21]): 0
Pigweed plant response rating (pigweed; [19]): 10
Plant response rating, Pigweed (pigweed; [22]): 90
Pigweed plant response rating (pigweed; [20]): 50
Plant response rating (0 to 100 scale), Cocklebur (cocklebur; [21]): 0
Cocklebur plant response rating (cocklebur; [19]): 0
Plant response rating, Cocklebur (cocklebur; [22]): 0
Cocklebur plant response rating (cocklebur; [20]): 20
Velvetleaf plant response rating (velvetleaf [9]; [15]): 15
Plant response rating, Velvetleaf (velvetleaf [9]; [16]): 20
Velvetleaf plant response rating (velvetleaf [9]; [17]): 15
Velvetleaf plant response rating (velvetleaf [9]; [18]): 5
Plant response rating (0 to 100 scale), Foxtail, Giant (giant foxtail [10]; [21]): 0
Foxtail, Giant plant response rating (giant foxtail [10]; [19]): 0
Plant response rating, Foxtail, Giant (giant foxtail [10]; [22]): 0
Foxtail, Giant plant response rating (giant foxtail [10]; [20]): 20
Morningglory plant response rating (morningglory [11]; [15]): 20
Plant response rating, Morningglory (morningglory [11]; [16]): 30
Morningglory plant response rating (morningglory [11]; [17]): 0
Morningglory plant response rating (morningglory [11]; [18]): 0
Barnyardgrass plant response rating (barnyardgrass [12]): 0
Plant response rating (0 to 100 scale), Lambsquarters (lambsquarters; [21]): 0
Lambsquarters plant response rating (lambsquarters; [19]): 40
Plant response rating, Lambsquarters (lambsquarters; [22]): 60
Lambsquarters plant response rating (lambsquarters; [20]): 70
Barnyardgrass plant response rating (barnyardgrass [13]; [15]): 20
Plant response rating, Barnyardgrass (barnyardgrass [13]; [16]): 45
Barnyardgrass plant response rating (barnyardgrass [13]; [17]): 10
Barnyardgrass plant response rating (barnyardgrass [13]; [18]): 0
Plant response rating (0 to 100 scale), Morningglory (morningglory [14]; [21]): 0
Morningglory plant response rating (morningglory [14]; [19]): 10
Plant response rating, Morningglory (morningglory [14]; [22]): 0
Morningglory plant response rating (morningglory [14]; [20]): 10
Wheat plant response rating (wheat; [19]): 0
Wheat plant response rating (wheat; [20]): 0
Plant response rating (0 to 100 scale), Corn (corn; [21]): 0
Corn plant response rating (corn; [19]): 10
Plant response rating, Corn (corn; [22]): 0
Corn plant response rating (corn; [20]): 20
